US20130046283A1, “METHODS AND INTRAVASCULAR TREATMENT DEVICES FOR TREATMENT OF ATHEROSCLEROSIS” (Medtronic Vascular, Inc., priority 2011, published 2013)
Entries after “also recorded” stand apart in the source; their conditions may differ.

What was measured:
Format in all cases: cell-based
BTG2 = assay: qRT-PCR BTG2 gene expression in SFA smooth muscle cells, drug then inflammatory cocktail; details: quiescent SFA smooth muscle cells, drug then FBS, TGF Beta and IL-1 beta cocktail; calibrated against unstimulated baseline; FIG. 14A
Procedure: (§1) FIG. 14 depicts differential effect of paclitaxel versus the Limus family of drugs on expression of cell cycle, proliferation and ECM target genes in SFA smooth muscle cells. Quiescent SFA smooth muscle cells were treated with of Paclitaxel, Zotarolimus or Sirolimus then stimulated with inflammatory cocktail consisting of FBS, TGF Beta and 11—1 beta. Relative gene expression levels were determined by qRT-PCR for each drug treated arm as calibrated against the unstimulated baseline control for (A) BTG2, (B) KLF4, (C) PEDF, (D) Endothelin-1, (E) Thrombospondin-1, and (F) Thrombospondin-3.
(§2) Since the limus drugs have been known to affect the signaling via their effect on cell cycle inhibitors (CDKN1A and CDKN1 B), we next studied their effects on the pertinent proliferative disease targets identified in this study. Specifically, we looked at BTG2, KLF4 and PEDF (FIGS. 14A, 14B, and 14C, respectively).

Thrombospondin-1 = assay: qRT-PCR Thrombospondin-1 gene expression in SFA smooth muscle cells, drug then inflammatory cocktail; details: quiescent SFA smooth muscle cells, FIG. 14E
Procedure: as §1
(§3) In a similar manner, the expression of Thrombospondin-1 and Thrombospondin-3 is inhibited by paciltaxel but not by sirolimus and zotarolimus. Taken together the data with regards to the differential effects of commercially employed, anti-proliferative drugs, such as paciltaxel and drugs of the limus family, on the expression of SFA disease target genes can highlight/point to wards the most beneficial therapeutic mode of application and treatment.

Thrombospondin-3 = assay: qRT-PCR Thrombospondin-3 gene expression in SFA smooth muscle cells, drug then inflammatory cocktail; details: quiescent SFA smooth muscle cells, FIG. 14F
Procedure: as §1, §3

PEDF = assay: qRT-PCR PEDF gene expression in SFA smooth muscle cells, drug then inflammatory cocktail; details: quiescent SFA smooth muscle cells, drug then FBS, TGF Beta and IL-1 beta cocktail; calibrated against unstimulated baseline; FIG. 14C
Procedure: as §1, §2

CTGF [1] = assay: Western blot of CTGF protein in drug-treated SFA derived smooth muscle cells; details: drug then Colchicinne or Angiotensin II stimulation, FIG. 13D
Procedure: (§4) FIG. 13 depicts effects of paclitaxel on cellular morphology, gene and protein expression. (A and B) SFA smooth muscle cells from normal donor tissue were treated with Paclitaxel, Everolimus or Sirolimus. Gene expression levels were determined by qRT-PCR for each drug arm calibrated against unstimulated control for (A) CDKN1A and (C) CTGF. (B) SMCs were exposed to Sirolimus or Paclitaxel, fixed and stained with Actin (red) and Ki67 (green). (D) SFA derived smooth muscle cells were treated with Paclitaxel, Everolimus or Sirolimus then stimulated with Colchicinne (CTGF a) or Angiotensin II (CTGF b). Protein levels were detected by western blot using antibodies against CTGF and beta actin. One representative blot of three replicates shown.
(§5) Obtaining samples from SFA arteries allowed us to generate SFA derived-smooth muscle cells and to examine the expression of genes of interest as ide12tified in the disease atherectomy samples. In particularly we investigated the transcriptional response to anti-proliferative drugs, e.g. paclitaxel and drugs from the limus family such as sirolimus, everolimus or zotarolimus. These drugs are currently employed in combination devices indicated for the treatment of coronary and peripheral disease, including drug eluting stents and drug eluting balloons. […]

CTGF [2] = assay: qRT-PCR CTGF gene expression in drug-treated SFA smooth muscle cells; details: qRT-PCR calibrated against unstimulated control, FIG. 13C
Procedure: as §4, §5

CDKN1A = assay: qRT-PCR CDKN1A gene expression in drug-treated SFA smooth muscle cells; details: SFA smooth muscle cells from normal donor tissue; qRT-PCR calibrated against unstimulated control; FIG. 13A
Procedure: as §4, §5

Endothelin-1 = assay: qRT-PCR Endothelin-1 gene expression in SFA smooth muscle cells, drug then inflammatory cocktail; details: quiescent SFA smooth muscle cells, FIG. 14D
Procedure: as §1, §3

KLF4 = assay: qRT-PCR KLF4 gene expression in SFA smooth muscle cells, drug then inflammatory cocktail; details: quiescent SFA smooth muscle cells, drug then FBS, TGF Beta and IL-1 beta cocktail; calibrated against unstimulated baseline; FIG. 14B
Procedure: as §1, §2

SFA smooth muscle cells = assay: Actin and Ki67 staining of SMCs exposed to drug (cellular morphology); details: SMCs fixed and stained with Actin and Ki67; FIG. 13B
Procedure: as §4, §5

| Structure (SMILES) | expression of BTG2 (BTG2) | expression of Thrombospondin-1 (Thrombospondin-1) | expression of Thrombospondin-1 (Thrombospondin-1; listed as paciltaxel) | expression of Thrombospondin-3 (Thrombospondin-3) | expression of Thrombospondin-3 (Thrombospondin-3; listed as paciltaxel) | expression of PEDF (PEDF) | CTGF protein levels (CTGF [1]) | expression of CTGF (gene) (CTGF [2]) | CDKN1A expression (CDKN1A) | expression of Endothelin-1 (Endothelin-1) | expression of Endothelin-1 (Endothelin-1; listed as paciltaxel) | expression of KLF4 (KLF4) | effect on cellular cytoskeleton / morphology (SFA smooth muscle cells) |
| --- | --- | --- | --- | --- | --- | --- | --- | --- | --- | --- | --- | --- | --- |
| CC(=O)O[C@H]1C(=O)[C@@]2(C)[C@H]([C@H](OC(=O)c3ccccc3)[C@]3(O)C[C@H](OC(=O)[C@H](O)[C@@H](NC(=O)c4ccccc4)c4ccccc4)C(C)=C1C3(C)C)[C@]1(OC(C)=O)CO[C@@H]1C[C@@H]2O [Paclitaxel] | up regulated | substantially down regulated | inhibited | substantially down regulated | inhibited | up regulated | reduced | substantial down regulation; also recorded: substantially down regulated | does not affect | substantially down regulated | slightly inhibited | up regulated | disrupting cellular cytoskeleton |
| CO[C@H]1C[C@@H]2CC[C@@H](C)[C@@](O)(O2)C(=O)C(=O)N2CCCC[C@H]2C(=O)O[C@H]([C@H](C)C[C@@H]2CC[C@@H](OCCO)[C@H](OC)C2)CC(=O)[C@H](C)/C=C(\C)[C@@H](O)[C@@H](OC)C(=O)[C@H](C)C[C@H](C)/C=C/C=C/C=C/1C [everolimus] |  |  |  |  |  |  |  |  | up regulating |  |  |  |  |
| CO[C@H]1C[C@@H]2CC[C@@H](C)[C@@](O)(O2)C(=O)C(=O)N2CCCC[C@H]2C(=O)O[C@H]([C@H](C)C[C@@H]2CC[C@H](n3cnnn3)[C@H](OC)C2)CC(=O)[C@H](C)/C=C(\C)[C@@H](O)[C@@H](OC)C(=O)[C@H](C)C[C@H](C)/C=C/C=C/C=C/1C [zotarolimus] | induced the expression |  |  |  |  |  |  |  |  | substantially upregulated |  | induced the expression |  |
